The numbers were not newly measured in patent publication US20170333338A1, “SUSTAINED AND REVERSIBLE ORAL DRUG DELIVERY SYSTEMS” (The Children's Medical Center Corporation, priority 2014, published 2017), which cites them from elsewhere.

On to `NCCC(O)(P(=O)(O)O)P(=O)(O)O` [Pamidronate], for which the “highest pKa of the phosphate groups” value is listed as 10.18.
